The values below are quoted from earlier work in patent US7132452B2, “Topical formulation having effects on alleviating pain/inflammation caused by herpes virus infection” (priority 2003, dated 2006).

In the case of `O=C(O)Cc1ccccc1Nc1c(Cl)cccc1Cl` [diclofenac, 2-(2,6-dichloro-anilino)-phenyl-acetic acid], the solubility in water result is listed as “relatively low solubility in water”. With `O=C(c1ccccc1)c1ccc2n1CCC2C(=O)O` (stereo not drawn) [ketorolac tromethamine], the solubility in water entry is “much more water soluble than the free acid form of ketorolac”. For the compound `O=C(c1ccccc1)c1ccc2n1CCC2C(=O)O` (racemic) [ketorolac, (±)-5-benzoyl-2,3-dihydro-1H-pyrrolizine-1-carboxylic acid], the solubility in water entry is given as “very low solubility in water”.
